Assay results as given in patent publication US20260250320A1, “LIPIDATED PEPTIDE INHIBITORS OF INTERLEUKIN-23 RECEPTOR” (Janssen Pharmaceutica NV, priority 2023, published 2026).
*1 amine or outer side, *2 acyl side, *3 side chain or, on linkers, in order; H or OH if unused. Where a SMILES comes first, the peptide text is derived from it. Bridges are numbered along the chain shown (N, C = ends). Side-chain parts run from the residue outwards. [ ]: non-standard residue; d: D form. The star is where a group is joined. X22 = O=C(O)CCCCCCCCCCCCCCCCC(=O)N[C@@H](CCC(=O)NCCOCCOCC(=O)NCCCCCOCC(=O)*)C(=O)O; Me3N+(CH2)2O(CH2)2O(CH2)2CO = C[N+](C)(C)CCOCCOCCC(=O)*; PEG12 = NCCOCCOCCOCCOCCOCCOCCOCCOCCOCCOCCOCCOCCC(=O)O; CH2CH2OCH2CH2OCH2CH2NMe3+ = C[N+](C)(C)CCOCCOCC*; dTrp(7-Me) = Cc1cccc2c(C[C@@H](N)C(=O)O)c[nH]c12; Biotin = O=C1N[C@H]2[C@H](CS[C@H]2CCCCC(=O)*)N1; Trp(7-Me) = Cc1cccc2c(C[C@H](N)C(=O)O)c[nH]c12; C20 diacid = O=C(O)CCCCCCCCCCCCCCCCCCC(=O)*; C18 diacid = O=C(O)CCCCCCCCCCCCCCCCC(=O)*; X40 = C=C(/C=N\C)C[C@H](N[*:1])C(=O)[*:2]; CH2CH2OCH2CH2NMe3+ = C[N+](C)(C)CCOCC*; γGlu = O=C(O)[C@H](CCC(=O)[*:2])N[*:1]; 2Nal = N[C@@H](Cc1ccc2ccccc2c1)C(=O)O; AEF = NCCOc1ccc(C[C@H](N)C(=O)O)cc1; PEG6 = NCCOCCOCCOCCOCCOCCOCCC(=O)O; 2Pal = N[C@@H](Cc1ccccn1)C(=O)O; 3Pal = N[C@@H](Cc1cccnc1)C(=O)O; Lys(Me) = CNCCCC[C@H](N)C(=O)O; PEG4 = NCCOCCOCCOCCOCCC(=O)O; Pen = CC(C)(S)[C@H](N)C(=O)O; Thp = NC1(C(=O)O)CCOCC1; AEEA = NCCOCCOCC(=O)O; Sar = CNCC(=O)O

Legend:
[1] = molecular target: T1, IL-23R (Homo sapiens, UniProt Q5VWK5); test: IL23R Reporter Assay; type: cell-based; settings: HEK293 cells containing IL-23R, IL-12Rβ1 and STAT-inducible firefly luciferase reporter; 10 ng/mL IL-23 (EC90); 5 h
T1 construct: HEK293 cells containing IL-23R, IL-12Rβ1 and a firefly luciferase reporter gene driven by a STAT-inducible promoter (Promega); host or cells: HEK293
T1 sequence (Q5VWK5 24-629): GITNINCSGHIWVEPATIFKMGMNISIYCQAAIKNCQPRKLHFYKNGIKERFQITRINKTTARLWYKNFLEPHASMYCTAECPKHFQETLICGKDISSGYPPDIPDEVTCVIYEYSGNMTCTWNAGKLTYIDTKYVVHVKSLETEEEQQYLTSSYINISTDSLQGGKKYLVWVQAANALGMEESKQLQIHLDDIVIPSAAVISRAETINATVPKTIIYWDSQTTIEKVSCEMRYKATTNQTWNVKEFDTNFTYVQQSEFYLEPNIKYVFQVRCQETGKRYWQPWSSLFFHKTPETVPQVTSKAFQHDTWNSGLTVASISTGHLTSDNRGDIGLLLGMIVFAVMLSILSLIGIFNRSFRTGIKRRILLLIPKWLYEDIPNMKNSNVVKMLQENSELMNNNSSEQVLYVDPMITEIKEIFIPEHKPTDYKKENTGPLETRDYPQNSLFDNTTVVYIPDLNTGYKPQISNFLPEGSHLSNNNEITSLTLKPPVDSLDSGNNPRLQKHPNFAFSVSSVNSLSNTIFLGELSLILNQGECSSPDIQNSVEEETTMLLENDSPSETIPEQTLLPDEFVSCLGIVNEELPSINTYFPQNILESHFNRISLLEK
Method in brief: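 HEK293 cells carrying IL-23R, IL-12Rβ1 and a STAT-driven firefly luciferase reporter (4000 cells/well) received compound, then 10 ng/mL IL-23 solution (EC90), and were incubated for 5 h at 37° C. BioGlo luminescence was normalised to IL-23 alone (0%) and 30 μM control inhibitor (100%). IC50 came from a 4-parameter Hill fit.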

[2] = tested on: IL-23-stimulated phosphorylated STAT3 in peripheral blood mononuclear cells (PBMCs); test: PBMC pSTAT3 Assay; type: cell-based; settings: PBMCs from healthy donors; 30 min preincubation with peptide; IL-23 5 ng/mL for 30 min; phospho-STAT3 by MSD
Method in brief: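 Healthy-donor PBMCs expanded 4 days on anti-CD3 with 100 ng/mL IL-1β, starved ~4 h in RPMI-0.1% BSA, preincubated 30 min with peptide, then stimulated 30 min at 37 °C with 5 ng/mL IL-23. Lysate pSTAT3 measured by MSD phospho-STAT panel; IC50 derived.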

Row | IC50 [1] [nM] | SMILES | IC50 [2] [nM]
1 | < 50 | CC(=O)N(C)CCCC[C@@H]1NC(=O)[C@H](Cc2c[nH]c3c(C)cccc23)NC(=O)[C@H]([C@@H](C)O)NC(=O)[C@H](CC(=O)N(C)C)NC(=O)[C@@H](NC(=O)[C@@H](CCCCNC(=O)COCCOCCNC(=O)COCCOCCNC(=O)CC[C@H](NC(=O)CCCCCCCCCCCCCCCCCCC(=O)O)C(=O)O)NC(=O)CCOCCOCC[N+](C)(C)C)C(C)(C)SSC(C)(C)[C@@H](C(=O)N[C@@H](Cc2ccc(OCCOCC[N+](C)(C)C)cc2)C(=O)N[C@@H](Cc2ccc3ccccc3c2)C(=O)NC2(C(=O)N[C@@H](CCCCN(C)C(C)=O)C(=O)N[C@@H](CC(N)=O)C(=O)N[C@@H](Cc3cccnc3)C(=O)N(C)CC(=O)N(C)C)CCOCC2)NC1=O [compound 129, cPEG3aCO-K(PEG2PEG2gEC20OH)-Pen(3)-N(N(Me)2)-T-7MeW-K(NMeAc)-Pen(3)-TMAPF-2Nal-THP-K(NMeAc)-N-3Pya-Sar-CON(Me)2] ({Me3N+(CH2)2O(CH2)2O(CH2)2CO}-[dK]([AEEA-AEEA-γGlu-C20 diacid])[Pen]D(NMe2)T[Trp(7-Me)][Lys(Me)](Ac)[Pen]Y(CH2CH2OCH2CH2NMe3+)[2Nal][Thp][Lys(Me)](Ac)N[3Pal][Sar]-NMe2; disulfide 2-7) | < 0.5
2 | < 50 | CC(=O)NCCCC[C@@H]1NC(=O)[C@H](Cc2c[nH]c3c(C)cccc23)NC(=O)[C@H]([C@@H](C)O)NC(=O)[C@H](CCCCNC(=O)COCCOCCNC(=O)COCCOCCNC(=O)CC[C@H](NC(=O)CCCCCCCCCCCCCCCCC(=O)O)C(=O)O)NC(=O)[C@@H](NC(=O)[C@@H](CCCNC(=N)N)NC(C)=O)C(C)(C)SSC(C)(C)[C@@H](C(=O)N[C@@H](Cc2ccc(OCCN)cc2)C(=O)N[C@@H](Cc2ccc3ccccc3c2)C(=O)NC2(C(=O)N[C@@H](CCCCN(C)C(=O)CCOCCOCC[N+](C)(C)C)C(=O)N[C@@H](CC(N)=O)C(=O)N[C@@H](Cc3ccccn3)C(=O)N(C)CC(N)=O)CCOCC2)NC1=O [compound 74, MeCO-r-Pen(3)-K(PEG2PEG2gEC18OH)-T-7MeW-K(Ac)-Pen(3)-AEF-2Nal-THP-K(NMecPEG3a)-N-3Pya-Sar-CONH2] (Ac-[dR][Pen]K([AEEA-AEEA-γGlu-C18 diacid])T[Trp(7-Me)]K(Ac)[Pen][AEF][2Nal][Thp][Lys(Me)](Me3N+(CH2)2O(CH2)2O(CH2)2CO)N[2Pal][Sar]-NH2; disulfide 2-7) | < 0.5
3 | < 50 | CC(=O)NCCCC[C@@H]1NC(=O)[C@H](Cc2c[nH]c3c(C)cccc23)NC(=O)[C@H]([C@@H](C)O)NC(=O)[C@H](CC(N)=O)NC(=O)[C@@H](NC(=O)[C@@H](CCCNC(=N)N)NC(C)=O)C(C)(C)SSC(C)(C)[C@@H](C(=O)N[C@@H](Cc2ccc(OCCN)cc2)C(=O)N[C@@H](Cc2ccc3ccccc3c2)C(=O)NC2(C(=O)N[C@@H](CCC(=O)O)C(=O)N[C@@H](CC(N)=O)C(=O)N[C@@H](Cc3cccnc3)C(=O)N(C)CC(=O)N[C@@H](CCCCNC(=O)CCOCCOCCOCCOCCOCCOCCOCCOCCOCCOCCOCCOCCNC(=O)CC[C@H](NC(=O)CCCCCCCCCCCCCCCCCCC(=O)O)C(=O)O)C(N)=O)CCOCC2)NC1=O [compound 134, MeCO-r-Pen(3)-N-T-7MeW-K(Ac)-Pen(3)-AEF-2Nal-THP-E-N-3Pya-Sar-K(PEG12gEC20OH)-CONH2] (Ac-[dR][Pen]NT[Trp(7-Me)]K(Ac)[Pen][AEF][2Nal][Thp]EN[3Pal][Sar]K([PEG12-γGlu-C20 diacid])-NH2; disulfide 2-7) | < 0.5
4 | < 50 | C=C(/C=N\C)C[C@H](NC(=O)[C@H](CC(N)=O)NC(=O)[C@H](CCC(=O)O)NC(=O)C1(NC(=O)[C@H](Cc2ccc3ccccc3c2)NC(=O)[C@H](Cc2ccc(OCCN)cc2)NC(=O)[C@H]2NC(=O)[C@H](CCCCNC(C)=O)NC(=O)[C@H](Cc3c[nH]c4c(C)cccc34)NC(=O)[C@H]([C@@H](C)O)NC(=O)[C@H](CC(N)=O)NC(=O)[C@@H](NC(=O)[C@@H](CCCCNC(=O)CCOCCOCCOCCOCCOCCOCCOCCOCCOCCOCCOCCOCCNC(=O)CC[C@H](NC(=O)CCCCCCCCCCCCCCCCCCC(=O)O)C(=O)O)NC(C)=O)C(C)(C)SSC2(C)C)CCOCC1)C(=O)N(C)CC(N)=O [compound 26, MeCO-k(PEG12gEC20OH)-Pen(3)-N-T-7MeW-K(Ac)-Pen(3)-AEF-2Nal-THP-E-N-3Pya-Sar-CONH2] (Ac-[dK]([PEG12-γGlu-C20 diacid])[Pen]NT[Trp(7-Me)]K(Ac)[Pen][AEF][2Nal][Thp]EN[X40][Sar]-NH2; disulfide 2-7) | < 0.5
5 | < 50 | CC(=O)N[C@@H]1C(=O)N[C@@H](CC(N)=O)C(=O)N[C@@H]([C@@H](C)O)C(=O)N[C@@H](Cc2c[nH]c3ccccc23)C(=O)N[C@@H](CCCCNC(=O)CCOCCOCCOCCOCCOCCOCCOCCOCCOCCOCCOCCOCCNC(=O)CC[C@H](NC(=O)CCCCCCCCCCCCCCCCC(=O)O)C(=O)O)C(=O)N[C@H](C(=O)N[C@@H](Cc2ccc(OCCN)cc2)C(=O)N[C@@H](Cc2ccc3ccccc3c2)C(=O)NC2(C(=O)N[C@@H](CCC(=O)O)C(=O)N[C@@H](CC(N)=O)C(=O)N[C@@H](Cc3cccnc3)C(=O)N(C)CC(N)=O)CCOCC2)C(C)(C)SSC1(C)C [compound 96, MeCO-Pen(3)-N-T-7MeW-K(PEG12gEC18OH)-Pen(3)-AEF-2Nal-THP-E-N-3Pya-Sar-CONH2] | < 0.5
6 | < 50 | CC(=O)NCCCC[C@@H]1NC(=O)[C@@H](Cc2c[nH]c3c(C)cccc23)NC(=O)[C@H]([C@@H](C)O)NC(=O)[C@H](CC(N)=O)NC(=O)[C@@H](NC(=O)[C@@H](CCCNC(=N)N)NC(=O)CCOCCOCCOCCOCCNC(=O)CCCC[C@@H]2SC[C@@H]3NC(=O)N[C@@H]32)C(C)(C)SSC(C)(C)[C@@H](C(=O)N[C@@H](Cc2ccc(OCCN)cc2)C(=O)N[C@@H](Cc2ccc3ccccc3c2)C(=O)NC2(C(=O)N[C@@H](CCC(=O)O)C(=O)N[C@@H](CC(N)=O)C(=O)N[C@@H](Cc3cccnc3)C(=O)N(C)CC(=O)N[C@@H](CCCCNC(=O)COCCCCCNC(=O)COCCOCCNC(=O)CC[C@H](NC(=O)CCCCCCCCCCCCCCCCC(=O)O)C(=O)O)C(N)=O)CCOCC2)NC1=O [compound 57, BiotinPEG4CO-r-Pen(3)-N-T-7MeW-K(Ac)-Pen(3)-AEF-2Nal-THP-E-N-3Pya-Sar-K(PEG2PEG2gEC18OH)-CONH2] ({Biotin-PEG4}-[dR][Pen]NT[dTrp(7-Me)]K(Ac)[Pen][AEF][2Nal][Thp]EN[3Pal][Sar]K(X22)-NH2; disulfide 2-7) | < 0.5
7 | < 50 | CC(=O)N(C)CCCC[C@H](CC(=O)C1(NC(=O)[C@H](Cc2ccc3ccccc3c2)NC(=O)[C@H](Cc2ccc(OCCNC(=O)C[N+](C)(C)CCNC(=O)CCOCCOCCOCCOCCOCCOCCOCCOCCOCCOCCOCCOCCNC(=O)CC[C@H](NC(=O)CCCCCCCCCCCCCCCCCCC(=O)O)C(=O)O)cc2)NC(=O)[C@H]2NC(=O)[C@H](CCCCN(C)C(C)=O)NC(=O)[C@H](Cc3c[nH]c4c(C)cccc34)NC(=O)[C@H]([C@@H](C)O)NC(=O)[C@H](CC(=O)N(C)C)NC(=O)[C@@H](NC(=O)CCOCCOCC[N+](C)(C)C)C(C)(C)SSC2(C)C)CCCCC1)C(=O)C[C@@H](CC(N)=O)C(=O)C[C@@H](Cc1cccnc1)C(=O)N(C)CC(=O)N(C)C [compound 139, cPEG3aCO-Pen(3)-N(N(Me)2)-T-7MeW-K(NMeAc)-Pen(3)-AEF(SP6PEG12gEC20OH)-2Nal-THP-K(NMeAc)-N-3Pya-Sar-CON(Me)2] | < 0.5
8 | < 50 | CC(=O)N(C)CCCC[C@@H]1NC(=O)[C@H](Cc2c[nH]c3c(C)cccc23)NC(=O)[C@H]([C@@H](C)O)NC(=O)[C@H](CC(=O)N(C)C)NC(=O)[C@@H](NC(=O)CCOCCOCCOCCOCCOCCOCCNC(=O)CC[C@H](NC(=O)CCCCCCCCCCCCCCCCC(=O)O)C(=O)O)C(C)(C)SSC(C)(C)[C@@H](C(=O)N[C@@H](Cc2ccc(OCCOCCOCC[N+](C)(C)C)cc2)C(=O)N[C@@H](Cc2ccc3ccccc3c2)C(=O)NC2(C(=O)N[C@@H](CCCCN(C)C(C)=O)C(=O)N[C@@H](CC(N)=O)C(=O)N[C@@H](Cc3cccnc3)C(=O)N(C)CC(=O)N(C)C)CCOCC2)NC1=O [compound 109, HOC18gEPEG6CO-Pen(3)-N(N(Me)2)-T-7MeW-K(NMeAc)-Pen(3)-APEG3F-2Nal-THP-K(NMeAc)-N-3Pya-Sar-CON(Me)2] ({C18 diacid-γGlu-PEG6}-[Pen]D(NMe2)T[Trp(7-Me)][Lys(Me)](Ac)[Pen]Y(CH2CH2OCH2CH2OCH2CH2NMe3+)[2Nal][Thp][Lys(Me)](Ac)N[3Pal][Sar]-NMe2; disulfide 1-6) | < 0.5
